From PubChem BioAssay AID1259407 (Chemical Carcinogenesis Research Information System (CCRIS), 2018)
Calls of active or inactive are those of the source. How the calls were made is not given here.

Test system: CCRIS mutagenicity, Ames/micronucleus/aberration tests
Assay: CCRIS mutagenicity studies
[1] = Test System: AMES SALMONELLA TYPHIMURIUM, Strain/Indicator: TA98, Metabolic Activation: RAT, LIVER, S-9, AROCLOR 1254, Method: STANDARD PLATE
[2] = Test System: AMES SALMONELLA TYPHIMURIUM, Strain/Indicator: TA100, Metabolic Activation: RAT, LIVER, S-9, AROCLOR 1254, Method: STANDARD PLATE

## CNC[C@H](O)c1ccc(O)c(O)c1
Test System: AMES SALMONELLA TYPHIMURIUM, Strain/Indicator: TA98, Metabolic Activation: HAMSTER, LIVER, S-9, AROCLOR 1254 (10%), Method: PREINCUBATION
  mutagenic call: inactive; negative
Test System: AMES SALMONELLA TYPHIMURIUM, Strain/Indicator: TA98, Metabolic Activation: NONE, Method: PREINCUBATION
  mutagenic call: inactive; negative
Test System: AMES SALMONELLA TYPHIMURIUM, Strain/Indicator: TA98, Metabolic Activation: RAT, LIVER, S-9, AROCLOR 1254 (10%), Method: PREINCUBATION
  mutagenic call: inactive; negative
Test System: AMES SALMONELLA TYPHIMURIUM, Strain/Indicator: TA100, Metabolic Activation: HAMSTER, LIVER, S-9, AROCLOR 1254 (10%), Method: PREINCUBATION
  mutagenic call: inactive; negative
Test System: AMES SALMONELLA TYPHIMURIUM, Strain/Indicator: TA100, Metabolic Activation: NONE, Method: PREINCUBATION
  mutagenic call: inactive; negative
Test System: AMES SALMONELLA TYPHIMURIUM, Strain/Indicator: TA100, Metabolic Activation: RAT, LIVER, S-9, AROCLOR 1254 (10%), Method: PREINCUBATION
  mutagenic call: inactive; negative
Test System: AMES SALMONELLA TYPHIMURIUM, Strain/Indicator: TA1535, Metabolic Activation: HAMSTER, LIVER, S-9, AROCLOR 1254 (10%), Method: PREINCUBATION
  mutagenic call: inactive; negative
Test System: AMES SALMONELLA TYPHIMURIUM, Strain/Indicator: TA1535, Metabolic Activation: NONE, Method: PREINCUBATION
  mutagenic call: inactive; negative
Test System: AMES SALMONELLA TYPHIMURIUM, Strain/Indicator: TA1535, Metabolic Activation: RAT, LIVER, S-9, AROCLOR 1254 (10%), Method: PREINCUBATION
  mutagenic call: inactive; negative
Test System: AMES SALMONELLA TYPHIMURIUM, Strain/Indicator: TA1537, Metabolic Activation: HAMSTER, LIVER, S-9, AROCLOR 1254 (10%), Method: PREINCUBATION
  mutagenic call: inactive; negative
Test System: AMES SALMONELLA TYPHIMURIUM, Strain/Indicator: TA1537, Metabolic Activation: NONE, Method: PREINCUBATION
  mutagenic call: inactive; negative
Test System: AMES SALMONELLA TYPHIMURIUM, Strain/Indicator: TA1537, Metabolic Activation: RAT, LIVER, S-9, AROCLOR 1254 (10%), Method: PREINCUBATION
  mutagenic call: inactive; negative

## COCCCN(N=O)C(N)=O
Test System: E. COLI B, Strain/Indicator: H/R30R, Metabolic Activation: NONE
  mutagenic call: active; positive
Test System: E. COLI B, Strain/Indicator: HS30R, Metabolic Activation: NONE
  mutagenic call: active; positive

## O=[N+]([O-])c1ccc2ccc3c4c(cc5ccc1c2c53)C=CCC4
Test System: AMES SALMONELLA TYPHIMURIUM, Strain/Indicator: TA98(1,8-DNP6), Metabolic Activation: NONE, Method: STANDARD PLATE
  mutagenic call: active; positive
Test System: AMES SALMONELLA TYPHIMURIUM, Strain/Indicator: TA98(1,8-DNP6), Metabolic Activation: RAT, LIVER, S-9, AROCLOR 1254, Method: STANDARD PLATE
  mutagenic call: active; positive
Test System: AMES SALMONELLA TYPHIMURIUM, Strain/Indicator: TA98(NR), Metabolic Activation: NONE, Method: STANDARD PLATE
  mutagenic call: active; positive
Test System: AMES SALMONELLA TYPHIMURIUM, Strain/Indicator: TA98(NR), Metabolic Activation: RAT, LIVER, S-9, AROCLOR 1254, Method: STANDARD PLATE
  mutagenic call: active; positive
Test System: AMES SALMONELLA TYPHIMURIUM, Strain/Indicator: TA98, Metabolic Activation: NONE, Method: STANDARD PLATE
  mutagenic call: active; positive
[1]
  mutagenic call: active; positive
Test System: AMES SALMONELLA TYPHIMURIUM, Strain/Indicator: TA100, Metabolic Activation: NONE, Method: STANDARD PLATE
  mutagenic call: active; positive
[2]
  mutagenic call: active; positive

## Cc1ccc2c(c1)-c1ccccc1C2C (stereo not given)
[1]
  mutagenic call: active; positive
[2]
  mutagenic call: active; positive

## CCN(CC)CC(O)CNc1c2ccc([N+](=O)[O-])cc2nc2cc(OC)c(OC)cc12 (stereo not given)
Test System: Escherichia coli, Strain/Indicator: CC107 (G6 to B7 frameshifts), Metabolic Activation: None, Method: Modified preincubation
  mutagenic call: active; positive
Test System: Escherichia coli, Strain/Indicator: CC108 (G6 to G5 frameshifts), Metabolic Activation: None, Method: Modified preincubation
  mutagenic call: active; positive
Test System: Escherichia coli, Strain/Indicator: CC109 (CG5 to CG4 frameshifts), Metabolic Activation: None, Method: Modified preincubation
  mutagenic call: active; positive
Test System: Escherichia coli, Strain/Indicator: CC111 (A7 to A6 frameshifts), Metabolic Activation: None, Method: Modified preincubation
  mutagenic call: inactive; negative

## Cc1c2ccccc2c2ccc3cccc4ccc1c2c43
Test System: AMES SALMONELLA TYPHIMURIUM, Strain/Indicator: TA100, Metabolic Activation: RAT, NADPH-FORTIFIED HOMOGENIZED HEPATOCYTES, AROCLOR 1254, Method: PREINCUBATION
  mutagenic call: active; positive
Test System: CHINESE HAMSTER V-79, Strain/Indicator: V-79/8-AZAGUANINE, Metabolic Activation: HAMSTER, EMBRYO, CELL-MEDIATED, Method: STANDARD PLATE
  mutagenic call: active; positive
